Legend:
Assay in all cases: relative viability (nuclei count vs DMSO), 5 days (fraction); higher = more cells survive
[1] = system: HCC-44
Summary of the method: (§1)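 Relative viability divides the nuclei count in treated wells by that in vehicle wells. Lung cancer cell lines were seeded in 1536-well plates, dosed by pin tool the next day, and fixed and stained after 5 days in one step with final 0.05% Triton X-100, 1% formaldehyde and 1 ug/ml Hoechst. Dosing was a single drug or a fixed anchor-drug dose plus five library-drug doses (not always all listed) in √10 steps, and values are medians of duplicate plates imaged at 4×.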

[2] = system: LCLC-97TM1
Summary of the method: as §1

[3] = system: NCI-H2085
Summary of the method: as §1

[4] = system: EPLC-272H
Summary of the method: as §1

[5] = system: NCI-H1666
Summary of the method: as §1

[6] = system: NCI-H647
Summary of the method: as §1

[7] = system: HCC-827
Summary of the method: as §1

[8] = system: COR-L 105
Summary of the method: as §1

[9] = system: NCI-H650
Summary of the method: as §1

[10] = system: NCI-H2170
Summary of the method: as §1

[11] = system: NCI-H1437
Summary of the method: as §1

[12] = system: BEN
Summary of the method: as §1

[13] = system: NCI-H2087
Summary of the method: as §1

[14] = system: 201T
Summary of the method: as §1

[15] = system: LU99A
Summary of the method: as §1

[16] = system: LOU-NH91
Summary of the method: as §1

[17] = system: SW 1573
Summary of the method: as §1

[18] = system: H3255
Summary of the method: as §1

[19] = system: NCI-H1975
Summary of the method: as §1

[20] = system: PC-3 [JPC-3]
Summary of the method: as §1

[21] = system: EKVX
Summary of the method: as §1

O=c1cc(-c2cccc3c2Sc2ccccc2S3)oc(N2CCOCC2)c1 + Cc1nc(NC(=O)N2CCC[C@H]2C(N)=O)sc1-c1ccnc(C(C)(C)C(F)(F)F)c1 [Alpelisib] (partner 2 µM)
relative viability ([1]; first compound 0.08 µM): 0.811 | relative viability ([1]; first compound 0.253 µM): 0.904 | relative viability ([1]; first compound 0.8 µM): 0.689 | relative viability ([1]; first compound 2.53 µM): 0.685 | relative viability ([1]; first compound 8 µM): 0.753 | relative viability ([2]; first compound 0.08 µM): 0.238 | relative viability ([2]; first compound 0.253 µM): 0.27 | relative viability ([2]; first compound 0.8 µM): 0.323 | relative viability ([2]; first compound 2.53 µM): 0.205 | relative viability ([2]; first compound 8 µM): 0.218 | relative viability ([3]; first compound 0.08 µM): 0.907 | relative viability ([3]; first compound 0.253 µM): 0.93 | relative viability ([3]; first compound 0.8 µM): 1.05 | relative viability ([3]; first compound 2.53 µM): 0.779 | relative viability ([3]; first compound 8 µM): 0.72 | relative viability ([4]; first compound 0.08 µM): 0.966 | relative viability ([4]; first compound 0.253 µM): 1.11 | relative viability ([4]; first compound 0.8 µM): 0.987 | relative viability ([4]; first compound 2.53 µM): 0.86 | relative viability ([4]; first compound 8 µM): 0.929 | relative viability ([5]; first compound 0.08 µM): 0.789 | relative viability ([5]; first compound 0.253 µM): 1.13 | relative viability ([5]; first compound 0.8 µM): 0.82 | relative viability ([5]; first compound 2.53 µM): 0.854 | relative viability ([5]; first compound 8 µM): 0.681 | relative viability ([6]; first compound 0.08 µM): 1.4 | relative viability ([6]; first compound 0.253 µM): 1.47 | relative viability ([6]; first compound 0.8 µM): 1.31 | relative viability ([6]; first compound 2.53 µM): 0.869 | relative viability ([6]; first compound 8 µM): 0.977 | relative viability ([7]; first compound 0.08 µM): 0.957 | relative viability ([7]; first compound 0.253 µM): 1.02 | relative viability ([7]; first compound 0.8 µM): 1.01 | relative viability ([7]; first compound 2.53 µM): 0.826 | relative viability ([7]; first compound 8 µM): 0.979 | relative viability ([8]; first compound 0.08 µM): 1.1 | relative viability ([8]; first compound 0.253 µM): 1.13 | relative viability ([8]; first compound 0.8 µM): 0.862 | relative viability ([8]; first compound 2.53 µM): 0.902 | relative viability ([8]; first compound 8 µM): 1.12 | relative viability ([9]; first compound 0.08 µM): 1.1 | relative viability ([9]; first compound 0.253 µM): 1.17 | relative viability ([9]; first compound 0.8 µM): 1.11 | relative viability ([9]; first compound 2.53 µM): 1.07 | relative viability ([9]; first compound 8 µM): 1.08 | relative viability ([10]; first compound 0.08 µM): 0.791 | relative viability ([10]; first compound 0.253 µM): 0.835 | relative viability ([10]; first compound 0.8 µM): 0.933 | relative viability ([10]; first compound 2.53 µM): 0.747 | relative viability ([10]; first compound 8 µM): 0.841 | relative viability ([11]; first compound 0.08 µM): 1.07 | relative viability ([11]; first compound 0.253 µM): 1.08 | relative viability ([11]; first compound 0.8 µM): 1.15 | relative viability ([11]; first compound 2.53 µM): 0.989 | relative viability ([11]; first compound 8 µM): 1.08 | relative viability ([12]; first compound 0.08 µM): 0.912 | relative viability ([12]; first compound 0.253 µM): 1.06 | relative viability ([12]; first compound 0.8 µM): 1.32 | relative viability ([12]; first compound 2.53 µM): 1 | relative viability ([12]; first compound 8 µM): 1.46 | relative viability ([13]; first compound 0.08 µM): 1.22 | relative viability ([13]; first compound 0.253 µM): 1.19 | relative viability ([13]; first compound 0.8 µM): 1.09 | relative viability ([13]; first compound 2.53 µM): 1.12 | relative viability ([13]; first compound 8 µM): 1.03 | relative viability ([14]; first compound 0.08 µM): 0.98 | relative viability ([14]; first compound 0.253 µM): 1.04 | relative viability ([14]; first compound 0.8 µM): 1.02 | relative viability ([14]; first compound 2.53 µM): 0.953 | relative viability ([14]; first compound 8 µM): 0.913 | relative viability ([15]; first compound 0.08 µM): 0.507 | relative viability ([15]; first compound 0.253 µM): 0.567 | relative viability ([15]; first compound 0.8 µM): 0.747 | relative viability ([15]; first compound 2.53 µM): 0.504 | relative viability ([15]; first compound 8 µM): 0.575 | relative viability ([16]; first compound 0.08 µM): 0.724 | relative viability ([16]; first compound 0.253 µM): 0.764 | relative viability ([16]; first compound 0.8 µM): 0.632 | relative viability ([16]; first compound 2.53 µM): 0.593 | relative viability ([16]; first compound 8 µM): 0.713 | relative viability ([17]; first compound 0.08 µM): 0.719 | relative viability ([17]; first compound 0.253 µM): 0.785 | relative viability ([17]; first compound 0.8 µM): 0.667 | relative viability ([17]; first compound 2.53 µM): 0.803 | relative viability ([17]; first compound 8 µM): 0.657 | relative viability ([18]; first compound 0.08 µM): 0.631 | relative viability ([18]; first compound 0.253 µM): 0.755 | relative viability ([18]; first compound 0.8 µM): 0.637 | relative viability ([18]; first compound 2.53 µM): 0.653 | relative viability ([18]; first compound 8 µM): 0.797 | relative viability ([19]; first compound 0.08 µM): 0.722 | relative viability ([19]; first compound 0.253 µM): 0.786 | relative viability ([19]; first compound 0.8 µM): 0.656 | relative viability ([19]; first compound 2.53 µM): 0.498 | relative viability ([19]; first compound 8 µM): 0.452 | relative viability ([20]; first compound 0.08 µM): 0.994 | relative viability ([20]; first compound 0.253 µM): 1.04 | relative viability ([20]; first compound 0.8 µM): 1.07 | relative viability ([20]; first compound 2.53 µM): 0.958 | relative viability ([20]; first compound 8 µM): 1.03 | relative viability ([21]; first compound 0.08 µM): 1.05 | relative viability ([21]; first compound 0.253 µM): 0.963 | relative viability ([21]; first compound 0.8 µM): 0.805 | relative viability ([21]; first compound 2.53 µM): 1 | relative viability ([21]; first compound 8 µM): 0.755
